Test results taken from PMC5844530, “Fosmetpantotenate (RE-024), a phosphopantothenate replacement therapy for pantothenate kinase-associated neurodegeneration: Mechanism of action and efficacy in nonclinical models” (PLoS ONE, 2018).
“And” between values parts separate entries of the source, which are not always exact repeats. Equal entries are not always repeated.

What was measured:
[1] = Pharmacokinetics in whole blood, CD-1 mice; conditions: CD-1 mice, individual animals; for concentration at 0.083 hr / concentration at 0.333 h / concentration at 0.5 h / concentration at 1 h / concentration at 4 h: male, CD-1, mouse, in vivo, po, Compound 1 Whole Blood Conc.; for concentration at 0.5 h / concentration at 1 h: 300 mg/kg, 300 mg/kg RE-024-02 by PO
Method: (§1) The whole blood samples (0.5 mL) were collected into syringes that were prefilled with 2.5 mL of ice-cold 0.1% formic acid in acetonitrile. The volume ratio of the whole blood to 0.1% formic acid in acetonitrile was 1/5 (v/v). Samples were frozen (-70°C) until analyzed by LC-MS/MS.
(§2) Standard curves and quality control (QC) samples were prepared fresh on the day of analysis by serial dilution of the standard mixture in quenched whole blood (1 part of blood to 5 parts of 0.1% formic acid in acetonitrile) and centrifuged. […] The frozen study samples were thawed in an ice/water bath and centrifuged. Supernatant (50 μL) from standards, QC samples, and study samples was transferred to a 96-well plate and dried completely under nitrogen. The dried residues were reconstituted with 100 μL of 0.1% formic acid in water containing internal standard (5 ng/mL of ^15N/^13C3-RE-024-02) and analyzed by LC-MS/MS.
(§3) LC-MS/MS analysis for blood pharmacokinetic samples: Samples were analyzed using an Agilent 1100 binary pump (Agilent Technologies, Santa Clara, CA, USA), connected to an AB Sciex API 6500 mass spectrometer (SCIEX, Framingham, MA, USA). An electrospray ionization source was used, scanning in the positive mode. […] The chromatography column was a Varian Metasil AQ 120–5 C18 column, 5 μm, 50 x 2.00 mm (Part No. A0530050X020) at ambient temperature, with a 0.5 mL/min flow rate and a 20 μL injection volume. Mobile phase (A) consisted of 0.1% formic acid in water; while mobile phase (B) consisted of 0.1% formic acid in acetonitrile:water (9:1, v/v).
(§4) Quantitation of in vivo samples: Peak areas were integrated using Analyst software (AB Sciex, Concord, Ontario, Canada). […] Calibration standards (at a minimum 7 per curve) were fit by linear regression with (1/x^2) weighting. QC samples were used (triplicate) at 3 concentrations for all tandem mass spectrometry (MS/MS) runs.
(§5) Pharmacokinetic calculations: PK analysis was performed using Phoenix WinNonlin®, Build 6.3.0.395 (Certara, Princeton, NJ, USA) using a non-compartmental model (PO dose = model 200 for extravascular dosing). […] Post-dose concentrations below the limit of quantitation (BLQ) were omitted from calculation.

[2] = Pharmacokinetics in whole blood, Sprague-Dawley rats; conditions: for % Parent AUCAll: Sprague-Dawley rat, metabolite AUCall/Parent AUCall x 100; for Whole Blood Conc. of compound 1: Sprague-Dawley rats; for concentration at 0.167 h / concentration at 0.33 h: Sprague-Dawley, rat, in vivo, po, Whole Blood Conc. of compound 1, Sprague-Dawley rats
Method: as §1, §2, §3, §4, §5

In the case of `COC(=O)CCNC(=O)[C@@H]1OP(=O)(N[C@@H](C)C(=O)OC)OCC1(C)C` (some centres unmarked) [Compound 1], the “Compound 1 Whole Blood Conc.” value ([1]; 700 mg/kg RE-024-02 by PO, 0.167 hr, LLOQ 1.6 nM, 700 mg/kg) is reported as 1672.2 nM and 620 nM and 433.8 nM and 1893.1 nM, the “Compound 1 Whole Blood Conc.” value ([1]; 700 mg/kg RE-024-02 by PO, 0.333 hr, LLOQ 0.6 ng/mL, 700 mg/kg) is reported as 63.6 ng/mL and the “Compound 1 Whole Blood Conc.” value ([1]; 700 mg/kg RE-024-02 by PO, 0.333 hr, LLOQ 1.6 nM, 700 mg/kg) is reported as 167.2 nM. For the same molecule, the “Compound 1 Whole Blood Conc.” value ([1]; 700 mg/kg RE-024-02 by PO, 0.5 hr, LLOQ 0.6 ng/mL, 700 mg/kg) was 12 ng/mL and 41.6 ng/mL and 9.4 ng/mL and 22.9 ng/mL, the “Compound 1 Whole Blood Conc.” value ([1]; 700 mg/kg RE-024-02 by PO, 0.5 hr, LLOQ 1.6 nM, 700 mg/kg) was 31.6 nM and 109.3 nM and 24.8 nM and 60.1 nM and the “Compound 1 Whole Blood Conc.” value ([1]; 700 mg/kg RE-024-02 by PO, 1 hr, LLOQ 0.6 ng/mL, 700 mg/kg) was 48.8 ng/mL and 16 ng/mL and 6.1 ng/mL and 8.8 ng/mL. The “Compound 1 Whole Blood Conc.” value ([1]; 700 mg/kg RE-024-02 by PO, 1 hr, LLOQ 1.6 nM, 700 mg/kg) was 128.4 nM and 42.1 nM and 15.9 nM and 23.2 nM, the “Compound 1 Whole Blood Conc.” value ([1]; 700 mg/kg RE-024-02 by PO, 2 hr, LLOQ 0.6 ng/mL, 700 mg/kg) was 5.5 ng/mL and 4 ng/mL and 5.6 ng/mL and 10.2 ng/mL and the “Compound 1 Whole Blood Conc.” value ([1]; 700 mg/kg RE-024-02 by PO, 2 hr, LLOQ 1.6 nM, 700 mg/kg) was 14.6 nM and 10.4 nM and 14.8 nM and 26.8 nM. For the same molecule, the “Compound 1 Whole Blood Conc.” value ([1]; 700 mg/kg RE-024-02 by PO, 4 hr, LLOQ 0.6 ng/mL, 700 mg/kg) was “BQL”, the “Compound 1 Whole Blood Conc.” value ([1]; 700 mg/kg RE-024-02 by PO, 4 hr, LLOQ 1.6 nM, 700 mg/kg) was “BQL” and the “Compound 1 Whole Blood Conc.” value ([1]; 700 mg/kg RE-024-02 by PO, 8 hr, LLOQ 0.6 ng/mL) was “BQL”. For the same molecule, the “Compound 1 Whole Blood Conc.” value ([1]; 700 mg/kg RE-024-02 by PO, 8 hr, LLOQ 1.6 nM) was “BQL”, the concentration at 0.083 hr ([1]; 100 mg/kg, 100 mg/kg RE-024-02 by PO, LLOQ 0.6 ng/mL) was 1.4 ng/mL and the concentration at 0.083 hr ([1]; 100 mg/kg, 100 mg/kg RE-024-02 by PO, LLOQ 1.6 nM) was 3.8 nM. For the same molecule, the concentration at 0.333 h ([1]; 100 mg/kg, 100 mg/kg RE-024-02 by PO, 0.333 hr, LLOQ 0.6 ng/mL) was 0.8 ng/mL, the concentration at 0.333 h ([1]; 100 mg/kg, 100 mg/kg RE-024-02 by PO, 0.333 hr, LLOQ 1.6 nM) was 2 nM and the concentration at 0.5 h ([1]; 0.5 hr, LLOQ 0.6 ng/mL) was 5 ng/mL. The concentration at 0.5 h ([1]; 0.5 hr, LLOQ 1.6 nM) was 13.1 nM, the concentration at 1 h ([1]; 1 hr, LLOQ 0.6 ng/mL) was 0.8 ng/mL and the concentration at 1 h ([1]; 1 hr, LLOQ 1.6 nM) was 2.1 nM. It also gave a concentration at 0.333 h ([1]; 700 mg/kg, 700 mg/kg RE-024-02 by PO, 0.333 hr, LLOQ 0.6 ng/mL) of 109 ng/mL, a concentration at 0.333 h ([1]; 700 mg/kg, 700 mg/kg RE-024-02 by PO, 0.333 hr, LLOQ 1.6 nM) of 286 nM and a concentration at 4 h ([1]; 700 mg/kg, 700 mg/kg RE-024-02 by PO, 4 hr, LLOQ 0.6 ng/mL) of 0.8 ng/mL. The concentration at 4 h ([1]; 700 mg/kg, 700 mg/kg RE-024-02 by PO, 4 hr, LLOQ 1.6 nM) was 2.1 nM, the “% Parent AUCAll” value ([2]; 300 mg/kg PO) was 39% and the “% Parent AUCAll” value ([2]; 700 mg/kg PO) was 22%. The “Whole Blood Conc. of compound 1” value ([2]; single 100 mg/kg RE-024-02 PO, time 0.5, LLOQ 0.60 ng/mL) was “BQL”, the “Whole Blood Conc. of compound 1” value ([2]; single 100 mg/kg RE-024-02 PO, time 0.5, LLOQ 1.58 nM) was “BQL” and the “Whole Blood Conc. of compound 1” value ([2]; single 100 mg/kg RE-024-02 PO, time 1, LLOQ 0.60 ng/mL) was “BQL”. For the same molecule, the “Whole Blood Conc. of compound 1” value ([2]; single 100 mg/kg RE-024-02 PO, time 1, LLOQ 1.58 nM) was “BQL”, the “Whole Blood Conc. of compound 1” value ([2]; single 100 mg/kg RE-024-02 PO, time 2, LLOQ 0.60 ng/mL) was “BQL” and the “Whole Blood Conc. of compound 1” value ([2]; single 100 mg/kg RE-024-02 PO, time 2, LLOQ 1.58 nM) was “BQL”. For the same molecule, the “Whole Blood Conc. of compound 1” value ([2]; single 100 mg/kg RE-024-02 PO, time 4, LLOQ 0.60 ng/mL) was “BQL”, the “Whole Blood Conc. of compound 1” value ([2]; single 100 mg/kg RE-024-02 PO, time 4, LLOQ 1.58 nM) was “BQL” and the “Whole Blood Conc. of compound 1” value ([2]; single 100 mg/kg RE-024-02 PO, time 8, LLOQ 0.60 ng/mL) was “BQL”. For the same molecule, the “Whole Blood Conc. of compound 1” value ([2]; single 100 mg/kg RE-024-02 PO, time 8, LLOQ 1.58 nM) was “BQL”, the “Whole Blood Conc. of compound 1” value ([2]; single 300 mg/kg RE-024-02 PO, time 0.33, LLOQ 0.60 ng/mL, 300 mg/kg) was 41.34 ng/mL and 21.6 ng/mL and the “Whole Blood Conc. of compound 1” value ([2]; single 300 mg/kg RE-024-02 PO, time 0.33, LLOQ 1.58 nM, 300 mg/kg) was 108.7 nM and 56.79 nM. The “Whole Blood Conc. of compound 1” value ([2]; single 300 mg/kg RE-024-02 PO, time 2, LLOQ 0.60 ng/mL) was “BQL”, the “Whole Blood Conc. of compound 1” value ([2]; single 300 mg/kg RE-024-02 PO, time 2, LLOQ 1.58 nM) was “BQL” and the “Whole Blood Conc. of compound 1” value ([2]; single 300 mg/kg RE-024-02 PO, time 4, LLOQ 0.60 ng/mL) was “BQL”. The “Whole Blood Conc. of compound 1” value ([2]; single 300 mg/kg RE-024-02 PO, time 4, LLOQ 1.58 nM) was “BQL”, the “Whole Blood Conc. of compound 1” value ([2]; single 300 mg/kg RE-024-02 PO, time 8, LLOQ 0.60 ng/mL) was “BQL” and the “Whole Blood Conc. of compound 1” value ([2]; single 300 mg/kg RE-024-02 PO, time 8, LLOQ 1.58 nM) was “BQL”. The “Whole Blood Conc. of compound 1” value ([2]; single 700 mg/kg RE-024-02 PO, time 8, LLOQ 0.60 ng/mL) was “BQL”, the “Whole Blood Conc. of compound 1” value ([2]; single 700 mg/kg RE-024-02 PO, time 8, LLOQ 1.58 nM) was “BQL” and the concentration at 0.167 h ([2]; 100 mg/kg, single 100 mg/kg RE-024-02 PO, time 0.167, LLOQ 0.60 ng/mL) was 3.88 ng/mL. It also gave a concentration at 0.167 h ([2]; 100 mg/kg, single 100 mg/kg RE-024-02 PO, time 0.167, LLOQ 1.58 nM) of 10.2 nM, a concentration at 0.33 h ([2]; 100 mg/kg, single 100 mg/kg RE-024-02 PO, time 0.33, LLOQ 0.60 ng/mL) of 1.21 ng/mL and a concentration at 0.33 h ([2]; 100 mg/kg, single 100 mg/kg RE-024-02 PO, time 0.33, LLOQ 1.58 nM) of 3.18 nM. It also gave a concentration at 0.33 h ([2]; 300 mg/kg, single 300 mg/kg RE-024-02 PO, time 0.33, LLOQ 0.60 ng/mL) of 22.6 ng/mL and a concentration at 0.33 h ([2]; 300 mg/kg, single 300 mg/kg RE-024-02 PO, time 0.33, LLOQ 1.58 nM) of 59.3 nM.
